In ChEMBL document CHEMBL1201862, “PubChem BioAssay data set” (2004):
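Assay format: 96-well plates, 48-hour exposure. The concentration for 50% growth inhibition is given as GI50.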 Calls of active or inactive are those of the source. Rule as the data show it: active = GI50 up to about 1.1 µM and inactive = higher.

Legend:
Assay in all cases: DTP human tumour cell line panel, 48 h
SF-268 = test system: SF-268
HCT-15 = test system: HCT-15
ACHN = test system: ACHN
MDA-MB-435 = test system: MDA-MB-435
U-251 = test system: U-251
HOP-92 = test system: HOP-92
SNB-75 = test system: SNB-75
NCI-H23 = test system: NCI-H23
OVCAR-4 = test system: OVCAR-4
CAKI-1 = test system: CAKI-1
K562 = test system: K562
SN12C = test system: SN12C
NCI/ADR-RES = test system: NCI/ADR-RES
HL-60 = test system: HL-60
SK-OV-3 = test system: SK-OV-3
M14 = test system: M14
KM12 = test system: KM12
UO-31 = test system: UO-31
HCC 2998 = test system: HCC 2998
RXF 393 = test system: RXF 393

How did the GI50 (SF-268) turn out when CC(C)c1cccc(C(C)C)c1NC(=O)/C(CC(=O)CC(c1ccccc1)c1c(O)c2ccccc2oc1=O)=N/O (stereo not given) was run?
Its GI50 is > 100 µM (inactive).

And the GI50 (HCT-15)?
Its GI50 is over 100 µM.

What about the GI50 (ACHN) of the same molecule?
The GI50 was > 100 µM (inactive).

And the GI50 (MDA-MB-435)?
Its GI50 is > 100 µM (inactive).

And the GI50 (U-251)?
Its GI50 is > 100 µM (inactive).

And the GI50 (HOP-92)?
Its GI50 is > 100 µM (inactive).

And the GI50 (SNB-75)?
Its GI50 is > 100 µM (inactive).

What about the GI50 (NCI-H23) of the same molecule?
The GI50 was > 100 µM (inactive).

What about the GI50 (OVCAR-4) of the same molecule?
The GI50 was > 100 µM (inactive).

What about the GI50 (CAKI-1) of the same molecule?
Its GI50 is > 100 µM (inactive).

What about the GI50 (K562) of the same molecule?
Its GI50 is > 100 µM (inactive).

And the GI50 (SN12C)?
The GI50 was > 100 µM (inactive).

And the GI50 (NCI/ADR-RES)?
The GI50 was > 100 µM (inactive).

What about the GI50 (HL-60) of the same molecule?
Its GI50 is > 100 µM (inactive).

What about the GI50 (SK-OV-3) of the same molecule?
The GI50 was > 100 µM (inactive).

And the GI50 (M14)?
The GI50 was > 100 µM (inactive).

What about the GI50 (KM12) of the same molecule?
The GI50 was > 100 µM (inactive).

And the GI50 (UO-31)?
The GI50 was > 95.9 µM (inactive).

What about the GI50 (HCC 2998) of the same molecule?
The GI50 was > 100 µM (inactive).

What about the GI50 (RXF 393) of the same molecule?
Its GI50 is > 100 µM (inactive).

How did the GI50 (SF-268) turn out when CC1(C)[C@@H]2C[C@H]1[C@@H](Cc1cccc(C[C@H]3c4cc(-c5ccccn5)ncc4[C@H]4C[C@@H]3C4(C)C)c1)c1cc(-c3ccccn3)ncc12 was run?
The GI50 was 1.97 µM (inactive).

What about the GI50 (HCT-15) of the same molecule?
Its GI50 is 8.24 µM.

What about the GI50 (ACHN) of the same molecule?
Its GI50 is 1.37 µM (inactive).

What about the GI50 (MDA-MB-435) of the same molecule?
Its GI50 is 2.96 µM (inactive).

What about the GI50 (U-251) of the same molecule?
Its GI50 is 2.92 µM (inactive).

What about the GI50 (HOP-92) of the same molecule?
The GI50 was 9.04 µM (inactive).

And the GI50 (SNB-75)?
Its GI50 is > 22.8 µM (inactive).

And the GI50 (NCI-H23)?
The GI50 was 4.9 µM (inactive).

What about the GI50 (OVCAR-4) of the same molecule?
The GI50 was > 100 µM (inactive).

What about the GI50 (CAKI-1) of the same molecule?
The GI50 was 1.75 µM (inactive).

And the GI50 (K562)?
The GI50 was 1.19 µM (inactive).

And the GI50 (SN12C)?
The GI50 was 5.68 µM (inactive).

And the GI50 (NCI/ADR-RES)?
Its GI50 is 3.78 µM (inactive).

What about the GI50 (HL-60) of the same molecule?
Its GI50 is 1.29 µM (inactive).

What about the GI50 (SK-OV-3) of the same molecule?
The GI50 was > 100 µM (inactive).

And the GI50 (M14)?
The GI50 was 2.76 µM (inactive).

What about the GI50 (KM12) of the same molecule?
Its GI50 is 3.12 µM (inactive).

What about the GI50 (UO-31) of the same molecule?
Its GI50 is 1.22 µM (inactive).

And the GI50 (HCC 2998)?
Its GI50 is 12.4 µM (inactive).

What about the GI50 (RXF 393) of the same molecule?
Its GI50 is 4.39 µM (inactive).

For O=C(NCCNCCNCCNC(=O)c1cc(-c2ccccc2)nc2ccccc12)c1cc(-c2ccccc2)nc2ccccc12, which GI50 (SF-268) is on record?
The GI50 was 3.4 µM (inactive).

And the GI50 (HCT-15)?
The GI50 was 7.08 µM.

And the GI50 (ACHN)?
Its GI50 is 2.13 µM (inactive).

And the GI50 (MDA-MB-435)?
The GI50 was 1.81 µM (inactive).

What about the GI50 (U-251) of the same molecule?
The GI50 was 1.73 µM (inactive).

What about the GI50 (HOP-92) of the same molecule?
Its GI50 is 1.92 µM (inactive).

What about the GI50 (SNB-75) of the same molecule?
Its GI50 is 1.78 µM (inactive).

What about the GI50 (NCI-H23) of the same molecule?
Its GI50 is 3.15 µM (inactive).

And the GI50 (OVCAR-4)?
Its GI50 is 3.43 µM (inactive).

And the GI50 (CAKI-1)?
The GI50 was 15.3 µM (inactive).

And the GI50 (K562)?
Its GI50 is 1.94 µM (inactive).

What about the GI50 (SN12C) of the same molecule?
Its GI50 is 3.07 µM (inactive).

And the GI50 (NCI/ADR-RES)?
Its GI50 is 13.4 µM (inactive).

What about the GI50 (HL-60) of the same molecule?
Its GI50 is 1.74 µM (inactive).

What about the GI50 (SK-OV-3) of the same molecule?
The GI50 was 3.02 µM (inactive).

What about the GI50 (M14) of the same molecule?
Its GI50 is 1.82 µM (inactive).

What about the GI50 (KM12) of the same molecule?
The GI50 was 2.24 µM (inactive).

What about the GI50 (UO-31) of the same molecule?
The GI50 was 6.9 µM (inactive).

What about the GI50 (HCC 2998) of the same molecule?
The GI50 was 1.71 µM (inactive).

What about the GI50 (RXF 393) of the same molecule?
The GI50 was 2.02 µM (inactive).

For c1cncc(CSc2ncnc3[nH]cnc23)c1, which GI50 (SF-268) is on record?
Its GI50 is > 100 µM (inactive).

What about the GI50 (HCT-15) of the same molecule?
Its GI50 is over 100 µM.

And the GI50 (ACHN)?
The GI50 was > 100 µM (inactive).

What about the GI50 (MDA-MB-435) of the same molecule?
Its GI50 is > 100 µM (inactive).

And the GI50 (U-251)?
Its GI50 is > 100 µM (inactive).

And the GI50 (HOP-92)?
Its GI50 is > 100 µM (inactive).

What about the GI50 (SNB-75) of the same molecule?
The GI50 was > 100 µM (inactive).

What about the GI50 (NCI-H23) of the same molecule?
The GI50 was > 100 µM (inactive).

And the GI50 (OVCAR-4)?
Its GI50 is > 100 µM (inactive).

And the GI50 (CAKI-1)?
Its GI50 is > 100 µM (inactive).

What about the GI50 (K562) of the same molecule?
The GI50 was > 100 µM (inactive).

What about the GI50 (SN12C) of the same molecule?
The GI50 was > 100 µM (inactive).

What about the GI50 (NCI/ADR-RES) of the same molecule?
Its GI50 is > 100 µM (inactive).

What about the GI50 (HL-60) of the same molecule?
Its GI50 is > 100 µM (inactive).

What about the GI50 (SK-OV-3) of the same molecule?
Its GI50 is > 100 µM (inactive).

And the GI50 (M14)?
The GI50 was > 100 µM (inactive).

What about the GI50 (KM12) of the same molecule?
The GI50 was > 100 µM (inactive).

And the GI50 (UO-31)?
Its GI50 is > 100 µM (inactive).

What about the GI50 (HCC 2998) of the same molecule?
Its GI50 is > 100 µM (inactive).

And the GI50 (RXF 393)?
Its GI50 is > 100 µM (inactive).
